System: MV-4-11 cells
Test: Gene expression microarray analysis (Affymetrix PrimeView) and GSEA
Format: cell-based, human
Parameters: RFU PODN (11730768_x_at) / Fold change /veh PODN (11730768_x_at) / RFU LINC00158 (11744669_a_at) / Fold change /veh LINC00158 (11744669_a_at) / RFU DUSP10 (11751237_a_at) / Fold change /veh DUSP10 (11751237_a_at) / RFU ID3 (11757404_x_at) / Fold change /veh ID3 (11757404_x_at) / RFU PLEKHG5 (11737974_s_at) / Fold change /veh PLEKHG5 (11737974_s_at) / RFU LRRC4B (11730491_at) / Fold change /veh LRRC4B (11730491_at) / RFU GIMAP4 (11747438_a_at) / Fold change /veh GIMAP4 (11747438_a_at) / RFU KRT8 (11758183_x_at) / Fold change /veh KRT8 (11758183_x_at) / RFU CNN1 (11734310_a_at) / Fold change /veh CNN1 (11734310_a_at) / RFU VPS37D (11726825_at) / Fold change /veh VPS37D (11726825_at) / RFU C10orf10 (11716522_x_at) / Fold change /veh C10orf10 (11716522_x_at) / RFU KIR2DL2 /// KIR2DL4 /// KIR2DL5A /// KIR2DL5B /// KIR2DS1 /// KIR2DS2 /// KIR2DS3 /// KIR2DS4 /// KIR3DL3 /// KIR3DL3 /// KIR3DS1 (11738374_at) / Fold change /veh KIR2DL2 /// KIR2DL4 /// KIR2DL5A /// KIR2DL5B /// KIR2DS1 /// KIR2DS2 /// KIR2DS3 /// KIR2DS4 /// KIR3DL3 /// KIR3DL3 /// KIR3DS1 (11738374_at) / RFU C1QL1 (11718748_at) / Fold change /veh C1QL1 (11718748_at) / RFU TMPRSS4 (11747572_a_at) / Fold change /veh TMPRSS4 (11747572_a_at) / RFU HAMP (11756126_x_at) / Fold change /veh HAMP (11756126_x_at) / RFU RNFT2 (11725882_a_at) / Fold change /veh RNFT2 (11725882_a_at) / RFU NR4A2 (11747474_a_at) / Fold change /veh NR4A2 (11747474_a_at) / RFU ABCC12 (11746883_a_at) / Fold change /veh ABCC12 (11746883_a_at) / RFU TMEM136 (11760407_x_at) / Fold change /veh TMEM136 (11760407_x_at) / RFU CLDN22 /// WWC2 (11732394_at) / Fold change /veh CLDN22 /// WWC2 (11732394_at) / RFU HLA-DPB1 (11760878_x_at) / Fold change /veh HLA-DPB1 (11760878_x_at) / RFU SPINT1 (11716480_a_at) / Fold change /veh SPINT1 (11716480_a_at) / RFU GAP43 (11754022_s_at) / Fold change /veh GAP43 (11754022_s_at) / RFU A4GNT (11735810_at) / Fold change /veh A4GNT (11735810_at) / RFU PRB3 (11715151_x_at) / Fold change /veh PRB3 (11715151_x_at) / RFU TUBB4B (11761932_at) / Fold change /veh TUBB4B (11761932_at) / RFU CAPN14 (11732068_a_at) / Fold change /veh CAPN14 (11732068_a_at) / RFU TMCC2 (11721928_a_at) / Fold change /veh TMCC2 (11721928_a_at) / RFU IRGQ (11745062_a_at) / Fold change /veh IRGQ (11745062_a_at) / RFU FAM174B (11720279_a_at) / Fold change /veh FAM174B (11720279_a_at) / RFU TMPRSS4 (11748680_a_at) / Fold change /veh TMPRSS4 (11748680_a_at) / RFU FAM212B (11763350_a_at) / Fold change /veh FAM212B (11763350_a_at) / RFU PLEKHG5 (11743358_a_at) / Fold change /veh PLEKHG5 (11743358_a_at) / RFU ZSCAN30 (11745921_a_at) / Fold change /veh ZSCAN30 (11745921_a_at) / RFU CMKLR1 (11741424_a_at) / Fold change /veh CMKLR1 (11741424_a_at) / RFU LOC101060620 /// MAPK8IP1 (11723275_at) / Fold change /veh LOC101060620 /// MAPK8IP1 (11723275_at) / RFU SPTSSB (11747773_x_at) / Fold change /veh SPTSSB (11747773_x_at) / RFU PRSS12 (11739890_at) / Fold change /veh PRSS12 (11739890_at) / RFU BIN1 (11741810_x_at) / Fold change /veh BIN1 (11741810_x_at) / RFU WNT11 (11732464_a_at) / Fold change /veh WNT11 (11732464_a_at) / RFU C10orf10 (11716521_a_at) / Fold change /veh C10orf10 (11716521_a_at) / RFU C5orf56 (11738089_at) / Fold change /veh C5orf56 (11738089_at) / RFU CYB561 (11721691_x_at) / Fold change /veh CYB561 (11721691_x_at) / RFU ANKRD19P (11752326_a_at) / Fold change /veh ANKRD19P (11752326_a_at) / RFU OR2T12 /// OR2T33 /// OR2T8 (11738714_s_at) / Fold change /veh OR2T12 /// OR2T33 /// OR2T8 (11738714_s_at) / RFU VCAN (11748164_a_at) / Fold change /veh VCAN (11748164_a_at) / RFU JSRP1 (11732532_at) / Fold change /veh JSRP1 (11732532_at) / RFU KRTAP10-11 (11738290_x_at) / Fold change /veh KRTAP10-11 (11738290_x_at) / RFU MYO3A (11730013_a_at) / Fold change /veh MYO3A (11730013_a_at) / RFU EBF3 (11725865_a_at) / Fold change /veh EBF3 (11725865_a_at) / RFU CAMK2N1 (11719241_x_at) / Fold change /veh CAMK2N1 (11719241_x_at) / RFU C5orf56 (11738088_a_at) / Fold change /veh C5orf56 (11738088_a_at) / RFU OLFML3 (11715873_a_at) / Fold change /veh OLFML3 (11715873_a_at) / RFU LOC100653217 /// NTM (11731650_a_at) / Fold change /veh LOC100653217 /// NTM (11731650_a_at) / RFU MAPK11 (11762145_a_at) / Fold change /veh MAPK11 (11762145_a_at) / RFU FIZ1 (11724087_x_at) / Fold change /veh FIZ1 (11724087_x_at) / RFU OASL (11726364_x_at) / Fold change /veh OASL (11726364_x_at) / RFU SOX15 (11748057_x_at) / Fold change /veh SOX15 (11748057_x_at) / RFU CD79A (11719716_a_at) / Fold change /veh CD79A (11719716_a_at) / RFU HIST1H1D (11736915_at) / Fold change /veh HIST1H1D (11736915_at) / RFU CASKIN2 (11723855_a_at) / Fold change /veh CASKIN2 (11723855_a_at) / RFU LOC730098 (11760151_x_at) / Fold change /veh LOC730098 (11760151_x_at) / RFU OR4N2 (11742367_at) / Fold change /veh OR4N2 (11742367_at) / RFU PRRT2 (11749266_a_at) / Fold change /veh PRRT2 (11749266_a_at) / RFU SNX32 (11753110_a_at) / Fold change /veh SNX32 (11753110_a_at) / RFU CDHR5 (11726645_a_at) / Fold change /veh CDHR5 (11726645_a_at) / RFU RCAN1 (11760418_a_at) / Fold change /veh RCAN1 (11760418_a_at) / RFU FAM167A (11723789_a_at) / Fold change /veh FAM167A (11723789_a_at) / RFU FAM26E (11764081_at) / Fold change /veh FAM26E (11764081_at) / RFU ISYNA1 (11749810_s_at) / Fold change /veh ISYNA1 (11749810_s_at) / RFU ACY1 (11761880_at) / Fold change /veh ACY1 (11761880_at) / RFU 11764098_at / Fold change /veh 11764098_at / RFU SAMD14 (11745864_x_at) / Fold change /veh SAMD14 (11745864_x_at) / RFU NPB (11741838_a_at) / Fold change /veh NPB (11741838_a_at) / RFU TMPRSS6 (11731388_a_at) / Fold change /veh TMPRSS6 (11731388_a_at) / RFU KRTAP10-2 (11738614_at) / Fold change /veh KRTAP10-2 (11738614_at) / RFU ARHGAP8 /// PRR5-ARHGAP8 (11727945_x_at) / Fold change /veh ARHGAP8 /// PRR5-ARHGAP8 (11727945_x_at) / RFU KRTAP5-7 /// NADSYN1 (11734609_at) / Fold change /veh KRTAP5-7 /// NADSYN1 (11734609_at) / RFU RASL12 (11751679_a_at) / Fold change /veh RASL12 (11751679_a_at) / RFU CDKN2B (11736163_a_at) / Fold change /veh CDKN2B (11736163_a_at) / RFU PRF1 (11729649_at) / Fold change /veh PRF1 (11729649_at) / RFU, ZNF638 /// ZNF638-IT1 / Fold change vs veh, ZNF638 /// ZNF638-IT1 / RFU, PANK3 / Fold change vs veh, PANK3 / RFU, SH3YL1 / Fold change vs veh, SH3YL1 / RFU, ZEB2 / Fold change vs veh, ZEB2 / RFU, NRIP1 / Fold change vs veh, NRIP1 / RFU, PTTG1IP / Fold change vs veh, PTTG1IP / RFU, CAPN2 / Fold change vs veh, CAPN2 / RFU, MED14 / Fold change vs veh, MED14 / RFU, SNORA58 / Fold change vs veh, SNORA58 / RFU, C1orf63 / Fold change vs veh, C1orf63 / RFU, LRRFIP1 / Fold change vs veh, LRRFIP1 / RFU, NDUFAF7 / Fold change vs veh, NDUFAF7 / RFU, SLC12A2 / Fold change vs veh, SLC12A2 / RFU, IBTK / Fold change vs veh, IBTK / RFU, ESF1 / Fold change vs veh, ESF1 / Fold change vs veh, TMEM50B / RFU, TAOK1 / Fold change vs veh, TAOK1 / RFU, ACBD3 / Fold change vs veh, ACBD3 / RFU, TMA16 / Fold change vs veh, TMA16 / RFU, RWDD3 / Fold change vs veh, RWDD3 / RFU, BCAT1 / Fold change vs veh, BCAT1 / RFU, EDEM3 / Fold change vs veh, EDEM3 / RFU, TMEM33 / Fold change vs veh, TMEM33 / RFU, WDR75 / Fold change vs veh, WDR75 / RFU, AHCTF1 / Fold change vs veh, AHCTF1 / RFU, TFRC / Fold change vs veh, TFRC / RFU, ZDHHC17 / Fold change vs veh, ZDHHC17 / RFU, NOM1 / Fold change vs veh, NOM1 / RFU, ARL8B / Fold change vs veh, ARL8B / RFU, ZBTB11 / Fold change vs veh, ZBTB11 / RFU, TAMM41 / Fold change vs veh, TAMM41 / RFU, KIAA1704 /// LOC100996395 / Fold change vs veh, KIAA1704 /// LOC100996395 / RFU, ING1 / Fold change vs veh, ING1 / RFU, TRMT61B / Fold change vs veh, TRMT61B / RFU, FUBP3 / Fold change vs veh, FUBP3 / RFU, TP53 / Fold change vs veh, TP53 / RFU, TNKS2 / Fold change vs veh, TNKS2 / RFU, ZFP14 / Fold change vs veh, ZFP14 / RFU, ACTR2 / Fold change vs veh, ACTR2 / RFU, PPP3R1 / Fold change vs veh, PPP3R1 / RFU, PIK3R1 / Fold change vs veh, PIK3R1 / RFU, HNRNPA1 / Fold change vs veh, HNRNPA1 / RFU, RNF170 / Fold change vs veh, RNF170 / RFU, ZNF28 / Fold change vs veh, ZNF28 / RFU, RNGTT / Fold change vs veh, RNGTT / RFU, OGT / Fold change vs veh, OGT / RFU, BRD1 / Fold change vs veh, BRD1 / RFU, MARS / Fold change vs veh, MARS / RFU, ZNF655 / Fold change vs veh, ZNF655 / RFU, FAHD1 / Fold change vs veh, FAHD1 / RFU, BDP1 / Fold change vs veh, BDP1 / RFU, LRRCC1 / Fold change vs veh, LRRCC1 / RFU, ARID1A / Fold change vs veh, ARID1A / RFU, ZNF146 / Fold change vs veh, ZNF146 / RFU, ZNF330 / Fold change vs veh, ZNF330 / RFU, GPN3 / Fold change vs veh, GPN3 / RFU, C9orf123 / Fold change vs veh, C9orf123 / RFU, N4BP2L2 / Fold change vs veh, N4BP2L2 / RFU, ARFIP1 / Fold change vs veh, ARFIP1 / RFU, FAM179B / Fold change vs veh, FAM179B / RFU, BCL10 / Fold change vs veh, BCL10 / RFU, UHRF1BP1L / Fold change vs veh, UHRF1BP1L / RFU, BET1 / Fold change vs veh, BET1 / RFU, CNOT2 / Fold change vs veh, CNOT2 / RFU, ZNF268 / Fold change vs veh, ZNF268 / Fold change vs veh, ZNF507 / RFU, DGCR2 / Fold change vs veh, DGCR2 / RFU, WDSUB1 / Fold change vs veh, WDSUB1 / Fold change vs veh, HSP90B1 /// MIR3652 / RFU, ADSS / Fold change vs veh, ADSS / RFU, GK / Fold change vs veh, GK / RFU, ZNF148 / Fold change vs veh, ZNF148 / RFU, TAF9 / Fold change vs veh, TAF9 / RFU, SLC1A5 / Fold change vs veh, SLC1A5 / RFU, SLMO2 / Fold change vs veh, SLMO2 / RFU, ABCC4 / Fold change vs veh, ABCC4 / RFU, LOC101060439 /// RAP1B / Fold change vs veh, LOC101060439 /// RAP1B / RFU, RFX7 / Fold change vs veh, RFX7 / RFU, GTPBP10 / Fold change vs veh, GTPBP10 / RFU, CNEP1R1 / Fold change vs veh, CNEP1R1 / RFU, BIVM-ERCC5 /// ERCC5 / Fold change vs veh, BIVM-ERCC5 /// ERCC5 / RFU, ILF3 / Fold change vs veh, ILF3 / RFU 11762660_at / Fold change /veh 11762660_at / RFU VCAN (11757783_s_at) / Fold change /veh VCAN (11757783_s_at) / RFU DDX43 (11728927_at) / Fold change /veh DDX43 (11728927_at) / RFU KRT8 (11758188_x_at) / Fold change /veh KRT8 (11758188_x_at) / RFU NKD1 (11759106_at) / Fold change /veh NKD1 (11759106_at) / RFU SRD5A1 (11742802_a_at) / Fold change /veh SRD5A1 (11742802_a_at) / RFU TPSAB1 /// TPSB2 (11721975_s_at) / Fold change /veh TPSAB1 /// TPSB2 (11721975_s_at) / RFU GSTM3 (11746129_a_at) / Fold change /veh GSTM3 (11746129_a_at) / RFU IL23R (11737362_x_at) / Fold change /veh IL23R (11737362_x_at) / RFU TMEM51 (11727254_a_at) / Fold change /veh TMEM51 (11727254_a_at) / RFU PIWIL2 (11732686_x_at) / Fold change /veh PIWIL2 (11732686_x_at) / RFU ORM1 (11744905_x_at) / Fold change /veh ORM1 (11744905_x_at) / RFU CCDC152 (11743942_at) / Fold change /veh CCDC152 (11743942_at) / RFU ECM1 (11717891_a_at) / Fold change /veh ECM1 (11717891_a_at) / RFU IL23R (11748794_a_at) / Fold change /veh IL23R (11748794_a_at) / RFU TNFAIP8L3 (11732012_x_at) / Fold change /veh TNFAIP8L3 (11732012_x_at) / RFU MBOAT4 (11741988_at) / Fold change /veh MBOAT4 (11741988_at) / RFU 11764193_at / Fold change /veh 11764193_at / RFU TMEM53 (11763286_at) / Fold change /veh TMEM53 (11763286_at) / RFU MAGEB2 (11727129_at) / Fold change /veh MAGEB2 (11727129_at) / RFU TMEM200A (11744735_a_at) / Fold change /veh TMEM200A (11744735_a_at) / RFU CCDC152 (11751479_a_at) / Fold change /veh CCDC152 (11751479_a_at) / RFU FAM211A (11726209_a_at) / Fold change /veh FAM211A (11726209_a_at) / RFU RGS16 (11746705_a_at) / Fold change /veh RGS16 (11746705_a_at) / RFU VCAN (11755009_s_at) / Fold change /veh VCAN (11755009_s_at) / RFU RHOB (11743442_s_at) / Fold change /veh RHOB (11743442_s_at) / RFU RGS16 (11720943_a_at) / Fold change /veh RGS16 (11720943_a_at) / RFU RGS16 (11720944_at) / Fold change /veh RGS16 (11720944_at) / RFU, VPS4B / Fold change vs veh, VPS4B / RFU, CREB1 / Fold change vs veh, CREB1 / RFU, DNAJC13 / Fold change vs veh, DNAJC13 / RFU, GNAQ / Fold change vs veh, GNAQ / RFU, CDK5R1 / Fold change vs veh, CDK5R1 / RFU, ZRANB3 / Fold change vs veh, ZRANB3 / RFU, CUL4A / Fold change vs veh, CUL4A / RFU, CCNY / Fold change vs veh, CCNY / RFU, UFL1 / Fold change vs veh, UFL1 / RFU, COG3 / Fold change vs veh, COG3 / RFU, DIAPH2 / Fold change vs veh, DIAPH2 / RFU, SKA2 / Fold change vs veh, SKA2 / RFU, AFF3 / Fold change vs veh, AFF3 / RFU, LMF1 / Fold change vs veh, LMF1 / RFU, IPO11 / Fold change vs veh, IPO11 / RFU, DFFB / Fold change vs veh, DFFB / RFU, FOXP1 / Fold change vs veh, FOXP1 / RFU, CARD8 / Fold change vs veh, CARD8 / RFU, STRN3 / Fold change vs veh, STRN3 / RFU, ADK / Fold change vs veh, ADK / RFU, RASSF2 / Fold change vs veh, RASSF2 / RFU, WIPF1 / Fold change vs veh, WIPF1 / RFU, LARP1B / Fold change vs veh, LARP1B / RFU, RASA1 / Fold change vs veh, RASA1 / RFU, RB1 / Fold change vs veh, RB1 / RFU, PPFIA1 / Fold change vs veh, PPFIA1 / RFU, MAT2A / Fold change vs veh, MAT2A / RFU, CCT5 / Fold change vs veh, CCT5 / RFU, WDR92 / Fold change vs veh, WDR92 / RFU, CUX1 / Fold change vs veh, CUX1 / RFU, TTC7A / Fold change vs veh, TTC7A / RFU, TMEM135 / Fold change vs veh, TMEM135 / RFU, DEPTOR / Fold change vs veh, DEPTOR / RFU, CPM / Fold change vs veh, CPM / RFU, DNAJB6 / Fold change vs veh, DNAJB6 / RFU, CACNA2D3 / Fold change vs veh, CACNA2D3 / RFU, DTX4 / Fold change vs veh, DTX4 / RFU, TFCP2 / Fold change vs veh, TFCP2 / RFU, GMCL1 /// GMCL1P1 / Fold change vs veh, GMCL1 /// GMCL1P1 / RFU, AEBP2 / Fold change vs veh, AEBP2 / RFU, SNHG1 /// SNORD22 /// SNORD25 /// SNORD26 /// SNORD27 /// SNORD28 /// SNORD29 /// SNORD31 / Fold change vs veh, SNHG1 /// SNORD22 /// SNORD25 /// SNORD26 /// SNORD27 /// SNORD28 /// SNORD29 /// SNORD31 / Fold change (Aza/veh), C12orf56 (ProbeSet 11735607_a_at) / Fold change (ACY-1035/veh), C12orf56 (ProbeSet 11735607_a_at) / Fold change (Aza/veh), FGFR1OP (ProbeSet 11751329_s_at) / Fold change (ACY-1035/veh), FGFR1OP (ProbeSet 11751329_s_at) / Fold change (Aza/veh), VPS36 (ProbeSet 11739960_a_at) / Fold change (ACY-1035/veh), VPS36 (ProbeSet 11739960_a_at) / RFU SYPL1 (11715823_x_at) / Fold change /veh SYPL1 (11715823_x_at) / RFU IGFBP7 (11715501_s_at) / Fold change /veh IGFBP7 (11715501_s_at) / RFU REEP3 (11722064_at) / Fold change /veh REEP3 (11722064_at) / RFU IGLL1 (11728026_x_at) / Fold change /veh IGLL1 (11728026_x_at): dose or concentration left out as unconfirmed
Conditions: MV-4-11 cells, 48 hours

Nc1ccc(-c2cccs2)cc1NC(=O)c1ccc2c(c1)cc(C1CC1)n2CCN1CCOCC1 [ACY-1035]
Fold change /veh CNN1 (11734310_a_at): 1.19
